Tested on: 276233-004-R-J1-PDC complex spheroid viability
Experiment: Anticancer human tumor 276233-004-R-J1-PDC patient-derived colon adenocarcinoma cell line growth inhibition [GQUAD]
Details: for IC50: curve of first compound; for viability, T/C: stronger effect = lower value
Method in brief: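 Tumor cells were grown as complex spheroids with HUVEC endothelial cells and mesenchymal stem cells as stroma. G-quadruplex stabilizers were combined with targeted agents over half-log dilutions from near the clinical Cmax, or from 10 microM.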
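Note: spheroids exposed to drugs for seven days.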
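Throughout, for viability, T/C: 100% = DMSO vehicle control viability.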

## CC1COCCN1c1cc(C2(O)CC3CCC(C2)O3)c2cnn(-c3ccn[nH]3)c2n1 (configuration not stated) + CN(C)c1ccc(Nc2c3ccc(NC(=O)CCN4CCCC4)cc3nc3cc(NC(=O)CCN4CCCC4)ccc23)cc1
Second compound 0.0316 µM
  IC50: 2840 nM
Second compound 0.1 µM
  IC50: 2410 nM
Second compound 0.316 µM
  IC50: 341 nM
Second compound 1 µM
  IC50: 555 nM
Second compound 3.16 µM
  IC50: 90.9 nM
Second compound 10 µM
  IC50: 43.4 nM
Second compound 0.0316 µM, first compound 0.0316 µM
  viability, T/C: 74.7%
Second compound 0.0316 µM, first compound 0.1 µM
  viability, T/C: 80.9%
Second compound 0.0316 µM, first compound 0.316 µM
  viability, T/C: 72.7%
Second compound 0.0316 µM, first compound 1 µM
  viability, T/C: 69%
Second compound 0.0316 µM, first compound 3.16 µM
  viability, T/C: 47.7%
Second compound 0.0316 µM, first compound 10 µM
  viability, T/C: 47.2%
Second compound 0.1 µM, first compound 0.0316 µM
  viability, T/C: 77.4%
Second compound 0.1 µM, first compound 0.1 µM
  viability, T/C: 89.3%
Second compound 0.1 µM, first compound 0.316 µM
  viability, T/C: 75%
Second compound 0.1 µM, first compound 1 µM
  viability, T/C: 60.8%
Second compound 0.1 µM, first compound 3.16 µM
  viability, T/C: 45.2%
Second compound 0.1 µM, first compound 10 µM
  viability, T/C: 46%
Second compound 0.316 µM, first compound 0.0316 µM
  viability, T/C: 64.9%
Second compound 0.316 µM, first compound 0.1 µM
  viability, T/C: 50.3%
Second compound 0.316 µM, first compound 0.316 µM
  viability, T/C: 50.4%
Second compound 0.316 µM, first compound 1 µM
  viability, T/C: 41.9%
Second compound 0.316 µM, first compound 3.16 µM
  viability, T/C: 50.8%
Second compound 0.316 µM, first compound 10 µM
  viability, T/C: 28.8%
Second compound 1 µM, first compound 0.0316 µM
  viability, T/C: 55.5%
Second compound 1 µM, first compound 0.1 µM
  viability, T/C: 51.1%
Second compound 1 µM, first compound 0.316 µM
  viability, T/C: 50.1%
Second compound 1 µM, first compound 1 µM
  viability, T/C: 47.2%
Second compound 1 µM, first compound 3.16 µM
  viability, T/C: 43.7%
Second compound 1 µM, first compound 10 µM
  viability, T/C: 27.6%
Second compound 3.16 µM, first compound 0.0316 µM
  viability, T/C: 57.6%
Second compound 3.16 µM, first compound 0.1 µM
  viability, T/C: 39.4%
Second compound 3.16 µM, first compound 0.316 µM
  viability, T/C: 52.8%
Second compound 3.16 µM, first compound 1 µM
  viability, T/C: 37.8%
Second compound 3.16 µM, first compound 3.16 µM
  viability, T/C: 39.5%
Second compound 3.16 µM, first compound 10 µM
  viability, T/C: 27.3%
Second compound 10 µM, first compound 0.0316 µM
  viability, T/C: 53.5%
Second compound 10 µM, first compound 0.1 µM
  viability, T/C: 42.1%
Second compound 10 µM, first compound 0.316 µM
  viability, T/C: 37.6%
Second compound 10 µM, first compound 1 µM
  viability, T/C: 37.4%
Second compound 10 µM, first compound 3.16 µM
  viability, T/C: 29.3%
Second compound 10 µM, first compound 10 µM
  viability, T/C: 25.4%

From PubChem BioAssay AID2060496 (Molecular Pharmacology Branch, DTP, NCI, 2025)
